{
  "source": "patent US20140342914A1",
  "about": "“Method of Plant Growth with Bifenthrin” (priority 2013, published 2014)",
  "tested_on": "Corn seeds",
  "test": "Corn seedling growth enhancement, in-furrow application at different rates (Example 2)",
  "assay_type": "in vivo",
  "settings": "average of 8 replications",
  "text": "Ten corn seeds (Pioneer variety 33M53, treated with PONCHO® 250 Insecticide) were evenly spaced in a single, 2 cm deep, furrow in a planter box (25.5 cm by 11.5 cm) containing steam treated loam soil (pH 6.4, 4.3% organic matter. An aqueous suspension of CAPTURE® LFR Insecticide (17.5% bifenthrin) was sprayed as a T-band in-furrow application onto the uncovered seeds at a rate of 269 g ai/ha using a DeVries overhead track sprayer at a pressure of 40 psi and an application volume of 200 l/ha. The seeds were covered with soil and the planter boxes placed onto a lab cart with overhead lighting set at 14 hours on and 10 hours off and a room temperature of 21° C. Three replicate planter boxes (total of 30 seeds) were treated and three control planter boxes to which no CAPTURE® Insecticide was applied were included in the test. Each planter box was watered with 146 mL of tap water and re-watered with 50 mL of tap water along the furrow at 4 days after treatment (DAT). At four DAT there were 19 emerged seedlings in the treated planter boxes and 16 emerged seedlings in the untreated planter boxes. At five DAT all seeds had emerged and the seedlings were removed from the soil and the roots were gently rinsed in tap water to remove the soil. The seedlings were placed onto paper and the roots and shoots were measured from the seed to the tip of the tallest leaf and from the seed to the tip of the longest root and each seedling was weighed. Table 1 below summarizes the average shoot height; root length and seedling wet weight of the treated and untreated seeds.\nIn a manner similar to Example 1, Corn seeds were treated in-furrow with different rates of CAPTURE® LFR or test solutions of technical bifenthrin (96% purity) dissolved in acetone and diluted with distilled water containing 0.1% Tween® 20 (Polyoxylethylene-sorbitan monolaurate available from SigmaAldrich). There were 8 replications of each treatment including the untreated control. Table 2 below summarizes the average shoot height, root length and seedling weight of the treated and untreated seeds.",
  "data": [
    {"compound": "Cc1c(COC(=O)[C@@H]2[C@H](/C=C(\\Cl)C(F)(F)F)C2(C)C)cccc1-c1ccccc1", "note": "(racemic) [Technical Bifenthrin, 2-methylbiphenyl-3-ylmethyl (Z)-(1RS)-cis-3-(2-chloro-3,3,3-trifluoroprop-1-enyl)-2,2-dimethyl cyclopropanecarboxylate]", "values": [
      {"measurement": "Root Length", "setting": "4.68 g ai/ha in-furrow", "value": 20.8, "unit": "cm"},
      {"measurement": "Seedling Weight", "setting": "4.68 g ai/ha in-furrow", "value": 1.1, "unit": "gm"},
      {"measurement": "Shoot Height", "setting": "4.68 g ai/ha in-furrow", "value": 9.2, "unit": "cm"},
      {"measurement": "Root Length", "setting": "18.75 g ai/ha in-furrow", "value": 20.7, "unit": "cm"},
      {"measurement": "Seedling Weight", "setting": "18.75 g ai/ha in-furrow", "value": 1.1, "unit": "gm"},
      {"measurement": "Shoot Height", "setting": "18.75 g ai/ha in-furrow", "value": 9.5, "unit": "cm"},
      {"measurement": "Root Length", "setting": "75 g ai/ha in-furrow", "value": 21.5, "unit": "cm"},
      {"measurement": "Seedling Weight", "setting": "75 g ai/ha in-furrow", "value": 1.2, "unit": "gm"},
      {"measurement": "Shoot Height", "setting": "75 g ai/ha in-furrow", "value": 9.6, "unit": "cm"},
      {"measurement": "Root Length", "setting": "300 g ai/ha in-furrow", "value": 21.8, "unit": "cm"},
      {"measurement": "Seedling Weight", "setting": "300 g ai/ha in-furrow", "value": 1.1, "unit": "gm"},
      {"measurement": "Shoot Height", "setting": "300 g ai/ha in-furrow", "value": 9.5, "unit": "cm"},
      {"measurement": "Root Length", "setting": "1200 g ai/ha in-furrow", "value": 22.3, "unit": "cm"},
      {"measurement": "Seedling Weight", "setting": "1200 g ai/ha in-furrow", "value": 1.2, "unit": "gm"},
      {"measurement": "Shoot Height", "setting": "1200 g ai/ha in-furrow", "value": 9.9, "unit": "cm"}
    ]}
  ]
}
